According to patent US20220010279A1, “KITS AND METHODS FOR PERFORMING OPTICAL DYNAMIC CLAMP ON EXCITABLE CELLS” (CORNELL UNIVERSITY, priority 2018, published 2022):

Test system: iPSC-CMs
Assay: Paced action potentials (perforated patch clamp; control, EDC or ODC with added IK1) after E-4031 addition
Format: cell-based, human
Settings: for APD90 after E-4031 addition: 500 nM E-4031 perfused 2 minutes, all cells, FIG. 7A
Method: Cor.4U hiPSC-CMs (Axiogenesis, Cologne, Germany) were thawed, seeded, and maintained according to the protocols provided by the manufacturer. The cells were seeded on 0.5% gelatin-coated 8 mm coverslips and plated at 100,000 cells/mL. Cells were incubated for at least 7 days post thaw prior to use for experiments.
Adenoviral vector was constructed using the Addgene (Cambridge, Mass.) plasmid pAAV-CAG-ArchT-GFP, deposited by K. Deisseroth's laboratory (plasmid 20940) (Ambrosi C M, et al. Methods Mol Biol. 2014, 1181:215-28; Yu J, et al. Methods Mol Biol. 2016, 1408:303-17). ArchT was expressed in iPSC-CMs using MOIs of 250-300, as described in previously published protocols using an adenovirus (Ambrosi C M, et al. Methods Mol Biol. 2014, 1181:215-28; Yu J, et al. Methods Mol Biol. 2016, 1408:303-1). Determination of successful infection was confirmed via eGFP fluorescence. Functionality of ArchT was confirmed by illuminating the cells with an LED (M565L3, ThorLabs) at 595 nm through a 40× objective and observing the amount of hyperpolarization of the membrane potential under current clamp. Stability of IArchT was measured with a voltage and light clamp protocol over time to investigate rundown with ArchT illumination (FIGS. 18A-18B).
Borosilicate glass pipettes were pulled to a resistance of 1-3 MΩ using a flaming/brown micropipette puller (Model P-1000, Sutter Instrument). The pipettes were filled with intracellular solution containing (mM) 10 NaCl, 130 KCl, 1 MgCl2, 10 CaCl2, 5.5 Dextrose, 10 HEPES. For perforated patch, the pipette was first backfilled by dipping the pipette tip into the intracellular solution for 10 seconds. Only the very tip contained the intracellular solution without any gramicidin to minimize the amount of gramicidin exiting the pipette prior to obtaining a giga-ohm seal. The pipette was then filled with the intracellular solution containing 8 μg/mL gramicidin passed through a 0.25 μm filter. […] The high calcium concentration in the intracellular pipette solution serves to verify the integrity of the patch as patch rupture under these conditions would lead to immediate cell contracture (Ishihara K, et al. J Physiol. 2004, 540(3):831-41). The coverslips containing iPSC-CMs were placed in the bath and constantly perfused with an extracellular solution at 37° C. containing (mM) 137 NaCl, 5.4 KCl, 1 MgSO4, 2 CaCl2, 10 Dextrose, 10 HEPES. GFP-expressing single cells that were visibly contracting were chosen for experiments. Patch-clamp measurements were made by a patch-clamp amplifier (Model 2400, A-M Systems, Inc) controlled by the Real Time eXperiment Interface (RTXI) to coordinate the amplifier via the data acquisition card (PCI-6025E, National Instruments). The voltage was corrected for the calculated liquid junction potential of −2.8 mV. RTXI was also used to control the LED light intensity. The series resistance was less than 10 MΩ and was not compensated.
To test the feasibility of using ArchT to inject a target current, stimulated action potentials under the EDC system were compared to those of the ODC platform at three different pacing frequencies: 0.5, 1 and 2 Hz. The cells were stimulated 10 times at 0.5, 1 and 2 Hz sequentially under three conditions (the order of which was randomized): (A) control, in which no additional current was added, (B) addition of Itarget with EDC, and (C) and addition of Itarget with ODC.
After the cells had undergone the aforementioned pacing protocol under the same three conditions, 500 nM E-4031 (a class III antiarrhythmic drug that blocks potassium channels, primarily of the human ether-a-go-go related gene (hERG) type) was perfused into the bath containing the coverslip of iPSC-CMs for 2 minutes. Experiments were again conducted under the same pacing protocol and conditions to measure the effect of IKr inhibition. […]

SMILES: Cc1cccc(CCN2CCC(C(=O)c3ccc(NS(C)(=O)=O)cc3)CC2)n1 [E-4031]
- APD with E-4031 addition (500 nM E-4031, example cell 13 paced at 0.5 Hz, control, EDC and ODC conditions, FIG. 6A-C): increases
- drug-induced APD prolongation, control (without dynamic clamp) cells compared to EDC and ODC (500 nM E-4031, paced at 0.5 Hz): more dramatic
- triangulation (APD90-APD30), control (without dynamic clamp) cells compared to EDC and ODC (500 nM E-4031, paced at 0.5 Hz): larger
- APD90 after E-4031 addition (paced at 0.5 Hz, Itarget (IK1) added with EDC): increased
- APD90 after E-4031 addition (paced at 0.5 Hz, Itarget (IK1) added with ODC): increased
- APD90 after E-4031 addition (paced at 0.5 Hz, control (no current addition)): increased
